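Five compound concentrations were applied to cells in 96-well plates for 48 hours; endpoints were derived by simple linear interpolation of the resulting dose-response curve. GI50 = concentration required for 50% inhibition of growth. TGI is the concentration that stops growth completely.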
Legend:
Assay in all cases: NCI tumour cell line growth inhibition, 48 h
[1] = tested on: DLD-1 colon
[2] = tested on: DMS 114 small cell lung
[3] = tested on: LXFL 529 NSCLC
[4] = tested on: RXF-631 renal
[5] = tested on: BT-549 breast
[6] = tested on: DU-145 prostate
[7] = tested on: T-47D breast
[8] = tested on: XF 498 CNS
[9] = tested on: MDA-N

Structure (SMILES) | TGI [1] [µM] | TGI [2] [µM] | TGI [3] [µM] | TGI [4] [µM] | GI50 [5] [µM] | TGI [5] [µM] | GI50 [6] [µM] | TGI [6] [µM] | GI50 [7] [µM] | TGI [7] [µM] | TGI [8] [µM] | TGI [9] [µM]
COc1cc(C2c3cc4c(cc3[C@@H](N(C)c3ccc(N(C)C)cc3)C3COC(=O)C23)OCO4)cc(OC)c1O (stereo partly specified) | 37.5 | 2.24 | 12.3 | 40.7 |  |  |  |  |  |  |  | 
O=C(O)Cn1ccc2ccccc21 |  |  |  |  | > 100 | > 100 | > 100 | > 100 | > 100 | > 100 |  | 
CN1CCN(CCCOc2cccc3nc(Nc4ccc(F)c(F)c4)ccc23)CC1 |  |  |  |  | 4.34 | 8.85 | 4.32 | 8.67 | 3.39 | 9.26 |  | 
Cc1cc2c(cc1CO)N1Cc3cc(C)c(CO)cc3N(C2)C1 | > 100 | > 100 | > 100 |  |  |  |  |  |  |  | > 100 | 
CCOc1ccc(N=Cc2ccnc3ccccc23)cc1 | > 100 | > 61.8 | 47.4 |  |  | > 81.1 |  | > 100 |  | > 100 | > 100 | > 100
C=C(CN1c2ccccc2Sc2ccccc21)c1ccc(C(=O)Nc2ccccc2N)cc1 |  |  |  |  | > 27.3 | > 100 | > 100 | > 100 | 6.14 | > 100 |  | 
CCn1c(=N)sc2nc3ccccc3n2c1=O |  |  |  |  |  |  |  | > 100 |  | > 100 |  | > 100
COC(=O)CC(=O)NCC1=CCC(=O)CC1 | > 100 | > 100 | > 100 |  |  |  |  |  |  |  | > 100 | 
Nc1ccccc1C(=O)NC(=O)Nc1ccc(Oc2ncc(Br)cn2)c(Cl)c1 | 23.3 | < 0.162 | 11.9 |  |  | > 62.9 |  | 1.52 |  | > 100 |  | 
N#C/C(=C\c1ccccc1)C(NO)Nc1ccccc1 (stereo unspecified) | > 100 |  | > 100 |  |  |  |  |  |  |  |  | 
CCOC(=O)C#Cc1c(C(=O)OCC)nnn1[C@@H]1O[C@H](CO)[C@H]2OC3(CCCCC3)O[C@H]21 |  |  |  |  | 8.66 | 20.8 | 3.89 | 13.6 | 2.21 | 5.47 |  | 
c1ccc(C2CC(c3ccc4ccccc4c3)=Nc3ccccc3S2)cc1 (stereo unspecified) |  |  | 27.6 | 91.1 |  |  |  |  |  |  | 31.2 | 
O=C1Nc2ccccc2/C1=C/c1cn(CC(O)Cn2cc(/C=C3\C(=O)Nc4ccccc43)c3ccccc32)c2ccccc12 (stereo unspecified) |  |  |  |  |  |  | 1.55 | 2.95 |  |  |  | 
CCC(=O)C(C(=O)CC)c1c(OC(=O)c2ccccc2)ccc(O)c1C(=O)OC |  |  | > 100 | > 100 |  |  |  |  |  |  | > 100 | 
COc1ccc(-c2n[nH]nc2-c2cc(OC)c3c(c2)OCO3)cc1 |  |  |  |  | 0.0847 | 28.9 | 0.0328 | 1.19 |  |  |  | 
CCc1nn2ncccc2c1-c1ccnc(NC2CC2)n1 |  |  |  |  | > 25 | > 25 | > 25 | > 25 | > 25 | > 25 |  | 
CCCCN1C(=O)/C(=c2\sc3n(c2=O)C2C(NN=3)N(CC)C(=O)N2CC)c2ccccc21 (stereo unspecified) |  |  |  |  | 1.76 | 9.19 |  |  |  |  |  | 
CCN(CC)c1ccc2nc3ccc(N=Nc4ccc(O)cc4)cc3[n+](-c3ccccc3)c2c1 |  |  |  |  | 10.5 | 31.8 | 4.68 | 16.7 | 3.6 | 84.1 |  | 
